The record followed here is ChEMBL document CHEMBL1122580, “Adenosine deaminase inhibitors. Synthesis of deaza analogues of erythro-9-(2-hydroxy-3-nonyl)adenine” (J Med Chem, 1984).

The Ki is the equilibrium dissociation constant of an inhibitor or competing ligand from its target. Read a low Ki as tighter binding.

The structures appear in SMILES notation.

One assay addresses T1, Adenosine deaminase (Bos taurus, UniProt P56658).
T1 sequence (P56658 whole entry): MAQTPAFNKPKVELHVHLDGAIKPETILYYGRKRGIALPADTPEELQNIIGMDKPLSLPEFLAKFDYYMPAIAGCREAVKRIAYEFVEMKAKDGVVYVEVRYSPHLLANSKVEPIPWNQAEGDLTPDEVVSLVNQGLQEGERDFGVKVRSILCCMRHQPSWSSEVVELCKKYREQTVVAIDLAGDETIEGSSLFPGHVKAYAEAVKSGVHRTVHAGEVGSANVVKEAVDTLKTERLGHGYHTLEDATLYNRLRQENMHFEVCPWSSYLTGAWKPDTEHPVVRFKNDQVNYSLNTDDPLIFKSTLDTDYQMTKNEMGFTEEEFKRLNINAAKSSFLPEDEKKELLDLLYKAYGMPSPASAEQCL
The experiment in a line: Binding affinity against calf intestine adenosine deaminase enzyme; Not Active.
`OC[C@H]1O[C@@H](n2cnc3cnccc32)[C@H](O)[C@@H]1O`: the Ki result is “Not Active”.

For another assay, the target named is T1, Adenosine deaminase. The experiment in a line: Binding affinity against calf intestine adenosine deaminase enzyme.
Compound `Nc1ccnc2c1ncn2[C@@H]1O[C@H](CO)[C@@H](O)[C@H]1O` came in with a Ki of 660 nM.

`CCCCCCC(C(C)O)n1cnc2c(N)nccc21` (stereo not given) returned a Ki of 10 nM. Against the preceding compound, the Ki is about 66-fold lower. For the compound `CCCCCCC(C(C)O)n1cnc2c(N)ccnc21` (stereo not given), affinity was put at a Ki of 160 nM. The same measure, in the same setting: next, `Nc1nccc2c1ncn2[C@@H]1O[C@H](CO)[C@@H](O)[C@H]1O`: 360000 nM; `CCCCCCC(C(C)O)n1cnc2cncnc21` (stereo not given): 840 nM; `CCCCCCC(C(C)O)n1cnc2cnccc21` (stereo not given): 120 nM. Same read-out and setting: next, `OC[C@H]1OC(n2cnc3cccnc32)[C@H](O)[C@@H]1O` (stereo not given in full): 42000 nM; `CCCCCC[C@@H]([C@@H](C)O)n1cnc2c(N)ncnc21` [EHNA]: 7 nM; `OC[C@H]1O[C@@H](n2cnc3cncnc32)[C@H](O)[C@@H]1O` [NEBULARINE]: 15000 nM.
